Assay results published in US9907309B2 (priority 2010, dated 2018).
Where two headings read alike, the source gives them in different places.

Columns and labels:
Settings in all cases: solo, growth at 405 nm 7 days after inoculation
Phytophtora infestans = format: cell-based
Alternaria solani = system: Alternaria solani
Septoria tritici = system: Septoria tritici

Molecule `C[C@]1(COC(=O)C2CC2)[C@@H]2C[C@H](O)[C@@]3(C)Oc4cc(-c5cccnc5)oc(=O)c4[C@H](O)[C@@H]3[C@@]2(C)CC[C@@H]1OC(=O)C1CC1` [Compound I, [(3S,4R,4aR,6S,6aS,12R,12aS,12bS)-3-(cyclopropanecarbonyloxy)-6,12-dihydroxy-4,6a,12b-trimethyl-11-oxo-9-(pyridin-3-yl)-1,2,3,4,4a,5,6,6a,12a,12b-decahydro-11H,12H-benzo[f]pyrano[4,3-b]chromen-4-yl]methyl cyclopropanecarboxylate] has an Observed efficacy (Phytophtora infestans; 4 ppm) of 6%, an Observed efficacy (Alternaria solani; 1 ppm) of 0% and an Observed efficacy (Septoria tritici; 4 ppm) of 0%. It also gave an Observed efficacy (Septoria tritici; 63 ppm) of 0%.
Molecule `Cn1cc(C(=O)Nc2ccccc2-c2cc(F)c(F)c(F)c2)c(C(F)F)n1` [Fluxapyroxad, fluxapyroxad] has an Observed efficacy (Septoria tritici; 0.063 ppm) of 54%.
With `COC(=O)N(OC)c1ccccc1COc1ccn(-c2ccc(Cl)cc2)n1` [Pyraclostrobin, pyraclostrobin] the Observed efficacy (Phytophtora infestans; 0.063 ppm) was 28%, the Observed efficacy (Alternaria solani; 0.001 ppm) was 16% and the Observed efficacy (Septoria tritici; 0.004 ppm) was 63%.
